Reference: patent publication US20060069132A1, “Azolecarboxamide herbicides” (priority 2004, published 2006)

Experiments:
morningglory = assay: Test B pre-/postemergence herbicide test; type: in vivo, Ipomoea coccinea; conditions: for Plant response rating (0 to 100 scale), Morningglory: 0 is no effect; for Plant response rating (0 to 100 scale), Morningglory / Plant response rating, Morningglory: preemergence; for Morningglory plant response rating: postemergence; for Plant response rating, Morningglory: 0 = no effect, 100 = complete control
Method in brief: (§1)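 Pre: seeds sown, then sprayed. Post: 1–4-leaf plants (2–18 cm) sprayed at the same time. Paddy: flooded, treated at 2-leaf stage. Formulation: non-phytotoxic solvent with surfactant. Greenhouse 13–15 days; visual 0–100 score relative to controls.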

[1] = tested on: small flower umbrella sedge; assay: Test B flooded paddy test; type: in vivo, Cyperus difformis; conditions: 1000 g ai/ha, scale 0 to 100 (0 no effect, 100 complete control)
Method in brief: (§2)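 Read-out: visual comparison with controls, scored 0 to 100, where 100 means complete control and 0 no effect. Formulated chemicals were applied postemergence to plants 2–18 cm tall (1- to 4-leaf), or to flooded-paddy plants at the 2-leaf stage, then held 13 to 15 days under glass.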

pigweed = assay: Test B pre-/postemergence herbicide test; type: in vivo, Amaranthus retroflexus; conditions: for Plant response rating (0 to 100 scale), Pigweed: 0 is no effect; for Plant response rating (0 to 100 scale), Pigweed / Plant response rating, Pigweed: preemergence; for Pigweed plant response rating: postemergence; for Plant response rating, Pigweed: 0 = no effect, 100 = complete control
Method in brief: (§3)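 Flooded paddy rice and barnyardgrass were treated at the 2-leaf stage; upland plantings received compound either on sown seed or on 1- to 4-leaf seedlings. All were kept 13–15 days in a greenhouse and scored visually, 0–100, relative to untreated plants.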

ducksalad = assay: Test B flooded paddy test; type: in vivo, Heteranthera limosa; conditions: 1000 g ai/ha, scale 0 to 100 (0 no effect, 100 complete control)
Method in brief: as §2

lambsquarters = assay: Test B pre-/postemergence herbicide test; type: in vivo, Chenopodium album; conditions: for Plant response rating (0 to 100 scale), Lambsquarters: 0 is no effect; for Plant response rating (0 to 100 scale), Lambsquarters / Plant response rating, Lambsquarters: preemergence; for Lambsquarters plant response rating: postemergence; for Plant response rating, Lambsquarters: 0 = no effect, 100 = complete control
Method in brief: as §3

wild oat = assay: Test B postemergence herbicide test; type: in vivo, Avena fatua; conditions: postemergence
Method in brief: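 Postemergence plants were sprayed with formulated test chemicals at 2 to 18 cm height (1- to 4-leaf stage); paddy species were grown to the 2-leaf stage. After 13 to 15 days in a greenhouse, injury was rated visually against untreated controls on a 0–100 scale (0 = no effect, 100 = complete control).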

blackgrass = assay: Test B postemergence herbicide test; type: in vivo, Alopecurus myosuroides; conditions: postemergence
Method in brief: as §2

velvetleaf = assay: Test B pre-/postemergence herbicide test; type: in vivo, Abutilon theophrasti; conditions: for Velvetleaf plant response rating: postemergence
Method in brief: as §3

rice = assay: Test B flooded paddy test; type: in vivo, Oryza sativa; conditions: 1000 g ai/ha, scale 0 to 100 (0 no effect, 100 complete control)
Method in brief: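 After treating 2-leaf paddy plants or 2–18 cm postemergence plants (1 to 4 leaves) with formulated chemical, researchers kept them in a greenhouse for 13–15 days. Effects were judged visually versus controls: 0 indicates none, 100 total control.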

corn = assay: Test B pre-/postemergence herbicide test; type: in vivo, Zea mays; conditions: for Plant response rating (0 to 100 scale), Corn: 0 is no effect; for Plant response rating (0 to 100 scale), Corn / Plant response rating, Corn: preemergence; for Corn plant response rating: postemergence; for Plant response rating, Corn: 0 = no effect, 100 = complete control
Method in brief: as §3

giant foxtail = assay: Test B pre-/postemergence herbicide test; type: in vivo, Setaria faberi; conditions: for Plant response rating (0 to 100 scale), Foxtail, Giant: 0 is no effect; for Plant response rating (0 to 100 scale), Foxtail, Giant / Plant response rating, Foxtail, Giant: preemergence; for Foxtail, Giant plant response rating: postemergence; for Plant response rating, Foxtail, Giant: 0 = no effect, 100 = complete control
Method in brief: as §3

large crabgrass = assay: Test B pre-/postemergence herbicide test; type: in vivo, Digitaria sanguinalis; conditions: for Plant response rating (0 to 100 scale), Crabgrass, Large: 0 is no effect; for Plant response rating (0 to 100 scale), Crabgrass, Large / Plant response rating, Crabgrass, Large: preemergence; for Crabgrass, Large plant response rating: postemergence; for Plant response rating, Crabgrass, Large: 0 = no effect, 100 = complete control
Method in brief: as §3

Surinam grass = assay: Test B pre-/postemergence herbicide test; type: in vivo, Urochloa decumbens; conditions: for Plant response rating (0 to 100 scale), Surinam Grass: 0 is no effect; for Plant response rating (0 to 100 scale), Surinam Grass / Plant response rating, Surinam Grass: preemergence; for Surinam Grass plant response rating: postemergence; for Plant response rating, Surinam Grass: 0 = no effect, 100 = complete control
Method in brief: as §3

cocklebur = assay: Test B pre-/postemergence herbicide test; type: in vivo, Xanthium strumarium; conditions: for Plant response rating (0 to 100 scale), Cocklebur: 0 is no effect; for Plant response rating (0 to 100 scale), Cocklebur / Plant response rating, Cocklebur: preemergence; for Cocklebur plant response rating: postemergence; for Plant response rating, Cocklebur: 0 = no effect, 100 = complete control
Method in brief: as §1

barnyardgrass = assay: Test B pre-/postemergence herbicide test; type: in vivo, Echinochloa crus-galli; conditions: for Plant response rating (0 to 100 scale), Barnyardgrass: 0 is no effect; for Plant response rating (0 to 100 scale), Barnyardgrass / Plant response rating, Barnyardgrass: preemergence; for Barnyardgrass plant response rating: postemergence; for Plant response rating, Barnyardgrass: 0 = no effect, 100 = complete control
Method in brief: as §1

[2] = 125 g ai/ha, 100 is complete control
[3] = 125 g ai/ha, visual rating, scale 0 (no effect) to 100 (complete control)
[4] = 500 g ai/ha, scale 0 to 100, 0 is no effect, 100 is complete control

Structure (SMILES): C#CCNC(=O)c1cccc(NC(=O)c2sc(C(C)(C)C)nc2CC)c1 [Compound 319]
- Plant response rating (0 to 100 scale), Morningglory (morningglory; [2]): 10
- Morningglory plant response rating (morningglory; [3]): 10
- Plant response rating, Morningglory (morningglory; 500 g ai/ha, visual rating): 20
- Morningglory plant response rating (morningglory; [4]): 20
- Sedge, Umbrella plant response rating [1]: 80
- Plant response rating (0 to 100 scale), Pigweed (pigweed; [2]): 60
- Pigweed plant response rating (pigweed; [3]): 30
- Plant response rating, Pigweed (pigweed; 500 g ai/ha, visual rating): 100
- Pigweed plant response rating (pigweed; [4]): 40
- Ducksalad plant response rating (ducksalad): 90
- Plant response rating (0 to 100 scale), Lambsquarters (lambsquarters; [2]): 20
- Lambsquarters plant response rating (lambsquarters; [3]): 50
- Plant response rating, Lambsquarters (lambsquarters; 500 g ai/ha, visual rating): 100
- Lambsquarters plant response rating (lambsquarters; [4]): 60
- Oat, Wild plant response rating (wild oat; [3]): 20
- Oat, Wild plant response rating (wild oat; [4]): 20
- Blackgrass plant response rating (blackgrass; [3]): 0
- Blackgrass plant response rating (blackgrass; [4]): 0
- Plant response rating (0 to 100 scale), Velvetleaf (velvetleaf; 125 g ai/ha, 0 is no effect, 100 is complete control, preemergence): 0
- Velvetleaf plant response rating (velvetleaf; [3]): 10
- Plant response rating, Velvetleaf (velvetleaf; 500 g ai/ha, visual rating, 0 = no effect, 100 = complete control, preemergence): 30
- Velvetleaf plant response rating (velvetleaf; [4]): 20
- Rice plant response rating (rice): 70
- Plant response rating (0 to 100 scale), Corn (corn; [2]): 10
- Corn plant response rating (corn; [3]): 20
- Plant response rating, Corn (corn; 500 g ai/ha, visual rating): 40
- Corn plant response rating (corn; [4]): 20
- Plant response rating (0 to 100 scale), Foxtail, Giant (giant foxtail; [2]): 20
- Foxtail, Giant plant response rating (giant foxtail; [3]): 20
- Plant response rating, Foxtail, Giant (giant foxtail; 500 g ai/ha, visual rating): 50
- Foxtail, Giant plant response rating (giant foxtail; [4]): 30
- Plant response rating (0 to 100 scale), Crabgrass, Large (large crabgrass; [2]): 50
- Crabgrass, Large plant response rating (large crabgrass; [3]): 20
- Plant response rating, Crabgrass, Large (large crabgrass; 500 g ai/ha, visual rating): 100
- Crabgrass, Large plant response rating (large crabgrass; [4]): 20
- Plant response rating (0 to 100 scale), Surinam Grass (Surinam grass; [2]): 20
- Surinam Grass plant response rating (Surinam grass; [3]): 10
- Plant response rating, Surinam Grass (Surinam grass; 500 g ai/ha, visual rating): 60
- Surinam Grass plant response rating (Surinam grass; [4]): 20
- Plant response rating (0 to 100 scale), Cocklebur (cocklebur; [2]): 0
- Cocklebur plant response rating (cocklebur; [3]): 20
- Plant response rating, Cocklebur (cocklebur; 500 g ai/ha, visual rating): 10
- Cocklebur plant response rating (cocklebur; [4]): 40
- Plant response rating (0 to 100 scale), Barnyardgrass (barnyardgrass; [2]): 50
- Barnyardgrass plant response rating (barnyardgrass; [3]): 0
- Plant response rating, Barnyardgrass (barnyardgrass; 500 g ai/ha, visual rating): 80
- Barnyardgrass plant response rating (barnyardgrass; [4]): 20

Structure (SMILES): CCn1nc(C(C)(C)C)cc1C(=O)Nc1cc(OC(F)(F)F)ccc1F [Compound 338]
- Plant response rating (0 to 100 scale), Morningglory (morningglory; [2]): 0
- Morningglory plant response rating (morningglory; [3]): 60
- Plant response rating, Morningglory (morningglory; 500 g ai/ha, visual rating): 10
- Morningglory plant response rating (morningglory; [4]): 100
- Sedge, Umbrella plant response rating [1]: 80
- Plant response rating (0 to 100 scale), Pigweed (pigweed; [2]): 70
- Pigweed plant response rating (pigweed; [3]): 60
- Plant response rating, Pigweed (pigweed; 500 g ai/ha, visual rating): 100
- Pigweed plant response rating (pigweed; [4]): 80
- Ducksalad plant response rating (ducksalad): 60
- Plant response rating (0 to 100 scale), Lambsquarters (lambsquarters; [2]): 60
- Lambsquarters plant response rating (lambsquarters; [3]): 10
- Plant response rating, Lambsquarters (lambsquarters; 500 g ai/ha, visual rating): 100
- Lambsquarters plant response rating (lambsquarters; [4]): 50
- Oat, Wild plant response rating (wild oat; [3]): 0
- Oat, Wild plant response rating (wild oat; [4]): 40
- Blackgrass plant response rating (blackgrass; [3]): 20
- Blackgrass plant response rating (blackgrass; [4]): 40
- Velvetleaf plant response rating (velvetleaf; [3]): 20
- Velvetleaf plant response rating (velvetleaf; [4]): 50
- Rice plant response rating (rice): 30
- Plant response rating (0 to 100 scale), Corn (corn; [2]): 10
- Corn plant response rating (corn; [3]): 10
- Plant response rating, Corn (corn; 500 g ai/ha, visual rating): 10
- Corn plant response rating (corn; [4]): 20
- Plant response rating (0 to 100 scale), Foxtail, Giant (giant foxtail; [2]): 30
- Foxtail, Giant plant response rating (giant foxtail; [3]): 20
- Plant response rating, Foxtail, Giant (giant foxtail; 500 g ai/ha, visual rating): 100
- Foxtail, Giant plant response rating (giant foxtail; [4]): 30
- Plant response rating (0 to 100 scale), Crabgrass, Large (large crabgrass; [2]): 80
- Crabgrass, Large plant response rating (large crabgrass; [3]): 20
- Plant response rating, Crabgrass, Large (large crabgrass; 500 g ai/ha, visual rating): 100
- Crabgrass, Large plant response rating (large crabgrass; [4]): 60
- Plant response rating (0 to 100 scale), Surinam Grass (Surinam grass; [2]): 20
- Surinam Grass plant response rating (Surinam grass; [3]): 20
- Plant response rating, Surinam Grass (Surinam grass; 500 g ai/ha, visual rating): 60
- Surinam Grass plant response rating (Surinam grass; [4]): 40
- Plant response rating (0 to 100 scale), Cocklebur (cocklebur; [2]): 0
- Cocklebur plant response rating (cocklebur; [3]): 10
- Plant response rating, Cocklebur (cocklebur; 500 g ai/ha, visual rating): 0
- Cocklebur plant response rating (cocklebur; [4]): 10
- Plant response rating (0 to 100 scale), Barnyardgrass (barnyardgrass; [2]): 20
- Barnyardgrass plant response rating (barnyardgrass; [3]): 20
- Plant response rating, Barnyardgrass (barnyardgrass; 500 g ai/ha, visual rating): 80
- Barnyardgrass plant response rating (barnyardgrass; [4]): 40
